Data on one compound can be found in US20090270474A1, “Therapeutic Agent for Keratoconjunctival Disorder” (priority 2005, published 2009).

The test system of this assay is corneal disorder models. The assay is described as follows: Test for therapeutic effect on corneal disorder (exorbital lacrimal gland removal model, fluorescein staining score). In kind it is in vivo, male SD rats. How it is done:
Using male SD rats, corneal disorder models were produced in accordance with the method of Fujihara et al. (Invest. Opthalmol. Vis. Sci. 42 (1): 96-100 (2001)). After the production of the corneal disorder models, the corneal disorder score was evaluated in accordance with the method of Murakami et al. (Journal of the eye 21 (1): 87-90 (2004)), and the improvement ratio of corneal disorder after instillation of eprosartan mesylate (hereinafter referred to as “Compound A”) was obtained.
As test animals, male SD rats were used, and systemic anesthesia was given to the rats by administration of Nembutal. Subsequently the exorbital lacrimal gland was removed and a corneal disorder was induced over a period of 2 months.
Then, Compound A was administered as follows.
A phosphate-buffered saline solution (PBS solution) containing Compound A (0.1%) was instilled into both eyes 6 times a day for 14 days (instilled amount: 5 μL/dose) (one group consisting of 4 animals, 8 eyes).
In a control group, PBS solution was instilled into both eyes 6 times a day for 14 days (instilled amount: 5 μL/dose) (one group consisting of 4 animals, 8 eyes).
Fourteen days after the start of instillation, the damaged parts of the cornea were stained with fluorescein. For each of the upper, middle and lower parts of the cornea, the degree of fluorescein staining was evaluated by scoring according to the criteria shown below and the improvement ratio of corneal disorder was calculated from the mean value of the total scores for each of the above-mentioned parts.
Also for normal eyes, the mean value of the total scores for each of the above-mentioned parts was obtained. […]
By taking the mean value of the total scores for the control group (PBS solution) as a standard (improvement ratio: 0%) and according to the calculation formula shown below, the improvement ratio in the Compound A instillation group was calculated, which is shown in Table 1. […]

SMILES strings stand for the structures.

With `CCCCc1ncc(/C=C(\Cc2cccs2)C(=O)O)n1Cc1ccc(C(=O)O)cc1` [Compound A, (E)-a-[[2-n-butyl-1-[(4-carboxyphenyl)methyl]-1H-imidazol-5-yl]methylene]-2-thiophenepropionic acid monomethanesulfonate], the “Improvement ratio (%)” value (0.1% in PBS instilled 6 times a day for 14 days, {(control)-(Compound A)}/((control)-(normal eye))x100, control = 0%) turned out to be 84.8%. Also, the “Improvement of corneal damage (in words)” value (rats, Table 1, 0.1% instillation for 14 days) is “significantly improved a corneal damage”. Besides, the “Mean value of scores” value (total fluorescein staining score (upper, middle, lower cornea, each 0-3), 0.1% in PBS instilled into both eyes 6 times a day for 14 days, mean of 8 eyes, control 6.1, normal eye 2.8) was 3.3.
